Like-named read-outs stand apart in the source and are kept apart here.

For 28 molecules, destruction, mortality and chromatographic logP results are on record in US6177431A, “Tetrahydropyrimidine derivatives” (priority 1996, dated 2001).

Data set [1] concerns mustard beetle larvae (Phaedon cochleariae). In words: Phaedon larvae test. To be noted: for mortality at 0.001 %: Phaedon cochleariae, in Brassica oleracea, 72 h, read-out: destruction.
Data set [2] relates to caterpillars of the owlet moth (Spodoptera frugiperda). In words: Spodoptera frugiperda test. Format: in vivo. To be noted: for destruction: after 3 days, active compound concentration 0.001%, cabbage leaves dipped; for mortality at 0.001 %: Spodoptera frugiperda, in Brassica oleracea, 72 h, read-out: destruction.
Data set [3] concerns green peach aphids (Myzus persicae). Briefly: Myzus test. In kind it is in vivo. To be noted: for mortality at 0.001 %: Myzus persicae, 24 h, read-out: destruction. From the text:
(§1) Solvent: 7 parts by weight of dimethylformamide

Data set [4] has as its system caterpillars of the diamondback moth (Plutella maculipennis). In words: Plutella test. To be noted: for mortality at 0.01 %: Plutella, in Brassica oleracea, 72 h, read-out: destruction. In kind it is in vivo.
Description: as §1

The subject of data set [5] is larvae of the green rice leaf hopper (Nephotettix cincticeps). In words: Nephotettix test. In kind it is in vivo. To be noted: 144 h, read-out: destruction.
Description: as §1

Data set [6] in a line: Lg. P, octanol/water partition coefficient determined by reversed phase HPLC. Format: physicochemical. From the text: *^) Lg. P = Logarithm of the partition coefficient P of the substance
between the solvents octanol and water, determined experimentally by […]

[7] abbreviates: after 1 day, active compound concentration 0.001%, infested broad bean seedlings dipped.
Setting [8] is: octanol/water, determined experimentally by reversed phase HPLC, read-out: Lg. P (logarithm of the partition coefficient P).

As for `CCC(C)(C)N1CC([N+](=O)[O-])=C2N(Cc3cnc(Cl)s3)CCN2C1` [(A), reference compound], the destruction entry was “no action” in data set [1] (after 3 days, active compound concentration 0.001%, cabbage leaves dipped) and “no action” in data set [2].
Regarding `COC(CN1CC([N+](=O)[O-])=C2N(Cc3cnc(Cl)s3)CCN2C1)OC` [(B), reference compound], the mortality at 0.001 % in data set [1] and in data set [2] was 30% in each case.
Consider `CCCCCCN1CC([N+](=O)[O-])=C2N(Cc3cnc(Cl)s3)CCN2C1` [(C), reference compound], for which the mortality at 0.001 % turned out to be 40% in data set [1] and 30% in data set [2].
Regarding `CN1CC([N+](=O)[O-])=C2N(Cc3cnc(Cl)s3)CCN2C1` [(D), reference compound], the destruction entry in data set [2] was “no action”.
For the molecule `CCOC(=O)CCN1CC([N+](=O)[O-])=C2N(Cc3ccc(Cl)nc3)CCN2C1` [(E), reference compound], the mortality at 0.001 % is 20% in data set [1] and 10% in data set [3] (in Vicia faba). For the same molecule, in data set [4] (after 3 days, active compound concentration 0.01%, cabbage leaves dipped), the destruction entry is recorded as “no action”. Also, in data set [5], the mortality at 0.0001 % worked out at 20%.
On to `O=[N+]([O-])C1=C2N(Cc3ccc(Cl)nc3)CCN2CN(Cc2ccc(Cl)cc2)C1` [(F), reference compound], for which the destruction entry in data set [3] (setting [7]) and in data set [2] was “no action” each time.
Regarding `CCOC(=O)CN1CC([N+](=O)[O-])=C2N(Cc3ccc(Cl)nc3)CCN2C1` [(G), reference compound], the mortality at 0.001 % in data set [2] was 30%.
On to `COC(=O)CN1CC([N+](=O)[O-])=C2N(Cc3ccc(Cl)nc3)CCN2C1` [Example 1, 6,7-dihydro-1-(2-chloropyridin-5-yl-methyl)-6-methoxycarbonyl-methyl-8-nitro-(5H)-imidazolidino-[2,3-f]-pyrimidine], for which the mortality at 0.001 % in data set [1] worked out at 100%; in data set [3] (in Vicia faba) it was 99%. In addition, in data set [4], the mortality at 0.01 % is 100%.
`O=C(CN1CC([N+](=O)[O-])=C2N(Cc3ccc(Cl)nc3)CCN2C1)Nc1ccccc1` [Example 3]: in data set [1], the mortality at 0.001 % is 100%.
With `O=C(O)CCCCCN1CC([N+](=O)[O-])=C2N(Cc3ccc(Cl)nc3)CCN2C1` [Example 4], the values for the mortality at 0.001 % in data set [1] and in data set [3] (in Vicia faba) were 100% and 80%, respectively. This molecule had a chromatographic logP in data set [6] (reversed phase hplc) of 1.07.
In turn, `CCOC(=O)CCCN1CC([N+](=O)[O-])=C2N(Cc3ccc(Cl)nc3)CCN2C1` [Example 5] registered a chromatographic logP in data set [6] (reversed phase hplc) of 0.94.
Consider `COC(=O)CN1CC([N+](=O)[O-])=C2N(Cc3cnc(Cl)s3)CCN2C1` [Example 6], for which the mortality at 0.001 % in data set [3] (in Vicia faba) was 90%. For the same molecule, the mortality at 0.01 % in data set [4] came to 100%. Moreover, in data set [5], the mortality at 0.0001 % was 100%.
On to `O=C(CN1CC([N+](=O)[O-])=C2N(Cc3ccc(Cl)nc3)CCN2C1)OCc1ccc(Cl)nc1` [Example 7], for which the mortality at 0.001 % in data set [1] stood at 100%. Also, the mortality at 0.0001 % in data set [5] was 100%.
Turning to `CC(C)OC(=O)CN1CC([N+](=O)[O-])=C2N(Cc3ccc(Cl)nc3)CCN2C1` [Example 9], the mortality at 0.001 % in data set [1] and in data set [2] was 100% each time. Also, the mortality at 0.01 % in data set [4] came to 100%. The mortality at 0.0001 % in data set [5] is 100%.
For the molecule `Cc1ccc(COC(=O)CN2CC([N+](=O)[O-])=C3N(Cc4ccc(Cl)nc4)CCN3C2)cc1` [Example 10], the mortality at 0.001 % in data set [1] and in data set [2] was 100% each time. In addition, the mortality at 0.01 % in data set [4] turned out to be 100%. For the same molecule, the mortality at 0.0001 % in data set [5] stood at 100%.
Regarding `CCCCCCCCOC(=O)CN1CC([N+](=O)[O-])=C2N(Cc3ccc(Cl)nc3)CCN2C1` [Example 11], the mortality at 0.001 % in data set [1] and in data set [2] was 100% throughout. Further, the mortality at 0.01 % in data set [4] turned out to be 100%.
On to `O=C(CN1CC([N+](=O)[O-])=C2N(Cc3ccc(Cl)nc3)CCN2C1)OCc1ccc(Cl)c(Cl)c1` [Example 12], for which the mortality at 0.001 % in data set [1] and in data set [2] was 100% throughout. Further, the mortality at 0.01 % in data set [4] is 100%.
`O=C(CN1CC([N+](=O)[O-])=C2N(Cc3ccc(Cl)nc3)CCN2C1)OCc1c(Cl)cccc1Cl` [Example 13]: the mortality at 0.01 % in data set [4] was found to be 100%.
On to `O=C(CN1CC([N+](=O)[O-])=C2N(Cc3ccc(Cl)nc3)CCN2C1)OCc1ccc(Cl)cc1Cl` [Example 14], for which the mortality at 0.001 % in data set [1] and in data set [2] was 100% throughout. Moreover, the mortality at 0.01 % in data set [4] amounted to 100%. Also, in data set [5], the mortality at 0.0001 % was 100%.
As to `COC(=O)CCCN1CC([N+](=O)[O-])=C2N(Cc3ccc(Cl)nc3)CCN2C1` [Example 15], the chromatographic logP in data set [6] (reversed phase hplc) stood at 1.12. Further, the mortality at 0.001 % in data set [3] (in Vicia faba) was determined as 98%; in data set [2], 100%. The mortality at 0.01 % in data set [4] amounted to 100%. For the same molecule, the mortality at 0.0001 % in data set [5] came to 100%.
On to `COC(=O)CCCN1CC([N+](=O)[O-])=C2N(Cc3cnc(Cl)s3)CCN2C1` [Example 16], for which the chromatographic logP in data set [6] (setting [8]) is 1.13. Further, the mortality at 0.001 % in data set [3] (setting [7]) turned out to be 90%. The mortality at 0.0001 % in data set [5] stood at 100%.
Regarding `CCOC(=O)CCCN1CC([N+](=O)[O-])=C2N(Cc3cnc(Cl)s3)CCN2C1` [Example 17], the chromatographic logP in data set [6] (setting [8]) came to 1.35. In data set [4], the mortality at 0.01 % stood at 100%. The mortality at 0.0001 % in data set [5] came to 100%.
Consider `COC(=O)CCCCN1CC([N+](=O)[O-])=C2N(Cc3ccc(Cl)nc3)CCN2C1` [Example 19], for which the mortality at 0.001 % stood at 100% in data set [1], 95% in data set [3] (in Vicia faba) and 100% in data set [2]. Besides, in data set [4], the mortality at 0.01 % came to 100%.
`COC(=O)CCCCCCCN1CC([N+](=O)[O-])=C2N(Cc3cnc(Cl)s3)CCN2C1` [Example 20]: the mortality at 0.001 % in data set [1], in data set [3] (setting [7]) and in data set [2] was 100% throughout.
For `COC(=O)CCCCCCCN1CC([N+](=O)[O-])=C2N(Cc3ccc(Cl)nc3)CCN2C1` [Example 21], in data set [6] (setting [8]), the chromatographic logP was 1.73. Also, in data set [4], the mortality at 0.01 % turned out to be 100%.
Regarding `CC(C)OC(=O)CCN1CC([N+](=O)[O-])=C2N(Cc3ccc(Cl)nc3)CCN2C1` [Example 23], the mortality at 0.001 % in data set [1] is 100%. The molecule also returned a chromatographic logP in data set [6] (reversed phase hplc) of 1.51.
`CCOC(=O)C(Cc1ccccc1)N1CC([N+](=O)[O-])=C2N(Cc3ccc(Cl)nc3)CCN2C1` (stereo not shown) [Example 27]: in data set [6] (setting [8]), the chromatographic logP was found to be 1.99.
`COC(=O)C(C(C)C)N1CC([N+](=O)[O-])=C2N(Cc3ccc(Cl)nc3)CCN2C1` (stereo not shown) [Example 28] returned a chromatographic logP in data set [6] (reversed phase hplc) of 1.55.
